Patent US6867236B1, “Method of preventing of delaying the onset and progression of Alzheimer's disease and related disorders” (Duke University, priority 1994, dated 2005)

Tested on: Alzheimer's disease
Experiment: Case-control study of sibships at high risk: odds ratios for age-adjusted risk of Alzheimer's disease with prior drug exposure (Cox proportional hazards models)
Format: in vivo, human
Details: for effect on risk of Alzheimer's disease in words: drug alone, orthogonal comparison with NSAIDs; for Odds ratio for risk of Alzheimer's disease: COL + AU, simple odds ratio
Experimental: Briefly, doubly affected sib pairs with Alzheimer's disease onset ages that differed by at least 3 years were studied, as were disease-discordant siblings whose unaffected sib(s) had survived at least 3 years beyond the onset age of the affected sib. Premorbid exposures to steroids, NSAIDs and other treatments were assessed for 186 subjects (91% response rate) by focused retrospective interviews using appropriate blinding and multiple informants when possible. Survival analysis methods were used to compare age-adjusted risk of Alzheimer's disease among sibs who had been exposed or unexposed, before onset, to glucocorticoids, aspirin, non-aspirin NSAIDs, and histamine H2 receptor blockers. […] The odds ratios for steroids, aspirin and non-aspirin NSAIDs fell within the related confidence interval from the prior twin study (Breitner, Neurology 44:227 (1994)).
Doubly affected sib pairs with Alzheimer's disease onset ages that differed by at least 3 years were studied, as were disease-discordant siblings whose unaffected sib(s) had survived at least 3 years beyond the onset age of the affected sib. Diagnoses and ages at onset of Alzheimer's disease were established by consideration of all relevant data, including extensive longitudinal observation, laboratory testing, and autopsy confirmation when available. Arthritis, peptic ulcer disease, and other non-neurological conditions were not considered when making these diagnoses. Subjects or their collateral informants received a letter, followed by a structured telephone interview, that investigated several common medical conditions (arthritis, diabetes, peptic ulcer disease) and treatments (glucocorticoids, nonsteroidal anti-inflammatories, including aspirin, acetaminophen, narcotic analgesics, insulin and oral hypoglycemic drugs, and histamine H2 blocking agents). The interview also sought timing and duration of exposure. The interviewers generally knew which subjects had Alzheimer's disease but were blinded to early- or late-affected status. The respondents were not made aware of the hypothesis under investigation. Collateral informants supplied data for the 107 subjects who had developed Alzheimer's disease. Collateral information was also sought for the remaining subjects; however, it is was necessary to rely on autobiographical data from 20 (26%).
Like dizygous twins, siblings share 50% of their genetic make-up on average. The relation of Alzheimer's disease onset and prior use of anti-inflammatory drugs was therefore studied in a sample of 186 sibs from 45 pedigrees ascertained for genetic linkage studies of late onset Alzheimer's disease (Pericak-Vance et al, Am. J. Hum. Genet. 48:1034 (1991)). The selected sibs were members of onset-discordant doubly affected pairs or disease-discordant pairs meeting criteria described above.
These differences and the association of Alzheimer's disease with the remaining exposures were investigated using Cox proportional hazards models (Cox, J. Roy. Stat. Soc. (Series B) 34:248-275 (1972)) in which the sample was first stratified by sibship. Table 2 reports odds ratios (o.r), the customary measure of risk associated with an exposure in case-control work. The o.r. is ordinarily calculated as the ratio of proportions exposed versus unexposed in the affected and unaffected groups; for conditions like Alzheimer's disease with age-dependent expression (Breitner et al, Am. J. Epidemiol. 128:536-548 (1988)), the o.r. is preferably calculated using proportional hazards or similar models which consider subjects' current age or age at death (i.e., censoring age), or age at onset of Alzheimer's disease. An o.r. of less than 1 implies reduced risk of disease with exposure. […] The apparent effect of both aspirin and NSAIDs increased with duration of exposure; the o.r. with use of NSAIDs for >1 yr. […]

[1] = Table 2, source of data COL + AU (collateral + autobiographical), stratified by sibship
[2] = Table 2, source of data COL only (collateral informants), stratified by sibship, exposure >=1 month
[3] = Table 3, orthogonal comparison, not stratified by sibship, no NSAIDs

CC(=O)Nc1ccc(O)cc1 [Acetaminophen]
Odds ratio for age-adjusted risk of Alzheimer's disease [1]: 0.104 | Odds ratio for age-adjusted risk of Alzheimer's disease [2]: 0.157 | Odds ratio for age-adjusted risk of Alzheimer's disease [3]: 0.192 | effect on risk of Alzheimer's disease in words: comparable but statistically inconclusive effect

CC(=O)Oc1ccccc1C(=O)O [Aspirin]
Odds ratio for risk of Alzheimer's disease (Table 2, exposed 1-12 mo.): 0.625 | Odds ratio for risk of Alzheimer's disease (Table 2, exposed >1 yr.): 0.369 | Odds ratio for age-adjusted risk of Alzheimer's disease [1]: 0.343 | Odds ratio for age-adjusted risk of Alzheimer's disease [2]: 0.349 | Odds ratio for age-adjusted risk of Alzheimer's disease [3]: 0.508 | effect on risk of Alzheimer's disease in words: weak but similar effect to NSAIDs | estimated odds ratios (o.r.), age-adjusted risk of Alzheimer's disease (sibs exposed or unexposed before onset): 0.35
